{
  "source": "paper doi:10.1101/2024.10.14.618121v2",
  "about": "(biorxiv, 2025)",
  "key": {"DENV3 NS5 MTase [1]": {"target": "T1, DENV3 NS5 MTase (dengue virus type 3, UniProt V9TQY8)", "T1 sequence (V9TQY8 2491-2753)": "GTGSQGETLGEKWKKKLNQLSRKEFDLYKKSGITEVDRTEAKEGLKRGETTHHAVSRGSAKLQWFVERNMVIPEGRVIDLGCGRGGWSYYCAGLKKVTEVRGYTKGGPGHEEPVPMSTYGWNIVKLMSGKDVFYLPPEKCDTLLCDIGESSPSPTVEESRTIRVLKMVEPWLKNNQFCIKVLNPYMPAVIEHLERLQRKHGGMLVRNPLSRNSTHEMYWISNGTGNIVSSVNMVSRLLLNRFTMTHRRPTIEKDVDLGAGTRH", "assay": "fluorescence polarization displacement of F-GTP", "type": "binding"}, "DENV3 NS5 MTase [2]": {"target": "T1, DENV3 NS5 MTase", "assay": "fluorescence polarization displacement of F-GTP", "type": "binding", "remark": "listed apart in the source"}},
  "data": [
    {"smiles": "O=c1c(O)c(-c2ccc(O)cc2)oc2c(O)c(O)cc(O)c12", "note": "[HC, herbacetin]", "values": [
      {"measurement": "IC50", "setting": "DENV3 NS5 MTase [1]", "value": "770 ± 10", "unit": "nM"},
      {"measurement": "Ki", "setting": "DENV3 NS5 MTase [2]", "value": "~430", "unit": "nM"}
    ]}
  ]
}
